In the METLIN SMRT retention time set (Domingo-Almenara et al. 2019):

Experiment: gradient 5% acetonitrile 3 min, to 50% in 2 min, to 85% in 15 min, held 3 min, 100 µL/min
Settings: column: Zorbax Extend-C18 2.1 x 50 mm; eluents: water / acetonitrile, 0.1% formic acid
Summary of the method: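 Data were gathered over 3 months by HPLC coupled to a quadrupole time-of-flight mass spectrometer, operated in positive and negative ionization mode. Mixtures of ~100 pure standards ran on a Zorbax Extend-C18 column (2.1 × 50 mm, 1.8 μm) at 100 μL/min, with water and acetonitrile each containing 0.1% formic acid and dead and dwell volumes of 40 μL and 900 μL. Retention time was read from adduct peaks picked by computer and checked manually.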

Row | Structure (SMILES) | RP-LC retention time [s]
1 | O=S(=O)(NCc1nc(-c2cccc(-c3ccn[nH]3)c2)no1)c1ccc(F)cc1 | 765
2 | CCOCCCNC(=O)C1CCCN(S(=O)(=O)c2ccc3c(ccn3CC)c2)C1 (stereo not drawn) | 842
3 | O=c1[nH]c(SCc2nnc(Nc3ccccc3)s2)nc2sc3c(c12)CCC3 | 801
4 | CCC(C)NC(=O)CCC(=O)N1CCc2c(c(C(=O)N3CCCC3)nn2C)C1 (stereo not drawn) | 617
5 | CC(C)c1nnc2ccc(N3CCCC3)nn12 | 819
6 | CCOC(=O)c1ccc(NC(=O)CC2Sc3ncnn3C2=O)cc1 (stereo not drawn) | 642
7 | CCn1ncc(Cl)c1C(=O)N1CCCC1c1ccccc1F (stereo not drawn) | 922
8 | COc1cc(OC)c(NS(=O)(=O)c2c(C)sc(C)c2-c2cc(C(F)(F)F)on2)cc1Cl | 1170
9 | COCc1c(C(=O)O)nnn1-c1ccc(C(F)(F)F)cc1 | 775
10 | Cn1cc(CCNC(=O)Cc2ccc(Cl)cc2)c2cccnc21 | 696
11 | COc1ccc(-c2cc3nn(CC(=O)NCc4cccc(OC)c4)c(=O)n3c(C)n2)cc1 | 875
12 | COc1ccc(-c2nc(CN(c3ccccc3)S(=O)(=O)c3cccs3)c(C)o2)cc1OC | 1040
13 | COc1ccc(-c2cn3c(CC(=O)Nc4ccc(F)c(Cl)c4)csc3n2)cc1 | 832
14 | CCc1ccc(NC(=O)Cc2nnc3cc(-c4nc(C)no4)ccn23)cc1 | 780
15 | CCn1cc(-c2ccc(Cl)cc2)cc1C(=O)NCc1ccncc1 | 720
16 | Cn1c(=O)c2nc(SCCC(=O)Nc3c(F)cccc3F)n(C)c2n(C)c1=O | 706
17 | CS(=O)(=O)NCC1CCC(C(=O)Nc2cccc3nsnc23)CC1 (stereo not drawn) | 700
18 | Cc1cc(F)ccc1NC(=O)c1c(O)c2cccnc2n(-c2ccccc2)c1=O | 1280
19 | COc1cc(OC)cc(-c2nc(Cn3c(C)nc4ccccc4c3=O)no2)c1 | 876
20 | Cc1cnc(CC2CCN(C(=O)C3CCC3)C2)n1C(C)C (stereo not drawn) | 585
21 | N#Cc1cc(-c2ccccc2)[nH]c1-c1nccc2ccccc12 | 981

Row | Structure (SMILES) | RP-LC retention time [s]
22 | Cc1ccc(-c2ccc3nn(Cc4nc(-c5ccc(OC(F)(F)F)cc5)no4)c(=O)n3n2)cc1 | 1120
23 | O=C(C1CCCO1)N1CCCN(Cc2nc(-c3ccc(Cl)cc3)no2)CC1 (stereo not drawn) | 706
24 | CCCCn1c(=O)c2ccccc2n(Cc2nc(-c3ccc(Br)cc3)no2)c1=O | 1300
25 | COc1cc(OC)cc(-c2noc(Cn3c(=O)n(CC(C)C)c(=O)c4ccccc43)n2)c1 | 1160
26 | CCCNC(=O)C1CCCN1S(=O)(=O)c1cc(C(=O)OCC)n(C)c1 (stereo not drawn) | 762
27 | CCCSCCCNC(=O)Cn1c(=O)c(C)nc2cc(C)c(C)cc21 | 828
28 | O=C(Cc1cccs1)NCC(=O)Nc1nc2ccccc2[nH]1 | 609
29 | COc1ccc2oc(-c3noc(C4CC(=O)N(c5ccccc5)C4)n3)c(C)c2c1 (stereo not drawn) | 1040
30 | O=C(NC1CCCCC1)c1cccc(Nc2c(-c3ccc(F)cc3)nc3cnccn23)c1 | 848
31 | Cc1ccn2c(NC(=O)C(C)(C)Oc3ccc(Cl)cc3)c(-c3ccccc3)nc2c1 | 804
32 | CCC(C)N(CC(=O)N1CCc2sccc2C1COc1cccc(F)c1)C(C)=O (stereo not drawn) | 754
33 | COc1ccccc1CNC(=O)Cn1c(=O)cc(-c2nc(C)no2)c2ccccc21 | 836
34 | COc1cc(CN2CCCC2c2cc(C(C)C)no2)ccc1OCC(N)=O (stereo not drawn) | 584
35 | Cc1cc2n(n1)CCC(=O)N2CCCC(=O)N1CCOCC1 | 585
36 | CCOC(=O)c1nc(NCc2ccc(F)cc2)c2ccccc2n1 | 931
37 | Oc1ccc(Cc2ccccc2Cl)c(O)c1 | 891
38 | CSc1ccc(-c2nc3ccc(Br)cn3c2NC2CCCCC2)cc1 | 955
39 | CC(=O)N1CCN(c2nc3c(s2)CC(C(=O)Nc2ccccc2)CC3)CC1 (stereo not drawn) | 541
40 | O=c1c(NC2CCCC2)nc2ccncc2n1Cc1ccccc1 | 682
41 | COc1cccc(-c2noc(Cc3nnc(-c4cccc(Cl)c4)o3)n2)c1OC | 1000
42 | CCc1nc2ccc(-c3noc(-c4ccc(NC(C)=O)cc4)n3)cc2n1CC | 630

Further lines, results first:

Row | RP-LC retention time [s] | Structure (SMILES)
43 | 876 | O=C(Nc1ccc(N2CCN(C3CCCC3)C2=O)nc1)c1cccc(F)c1
44 | 883 | Cc1ccc(CNC(=O)c2ccc3c(c2)N(C(=O)c2ccc(F)cc2)CC3)o1
45 | 653 | O=C(c1ccc(Br)cc1)N1CCN(c2nnc3ccccn23)CC1
46 | 699 | O=C(c1cn2c(n1)COCC2)N1CCN(c2ccc(Cl)cc2)CC1
47 | 757 | Cc1nc(C)c(C(=O)NCC23CCC=C2N(CC2CC2)C(=O)CC3)s1 (stereo not drawn)
48 | 849 | CCOC(=O)N1CCN(C(=O)CSc2ncnc3c2cnn3-c2ccc(F)cc2)CC1
49 | 693 | CNC(=O)C1CCN(Cc2cc3ccccc3n2Cc2ccc(C)cc2)CC1
50 | 827 | Cc1ccc(C)c(CN2C(=O)NC3(CCN(C(=O)c4ccsc4)CC3)C2=O)c1
51 | 883 | Cc1cc(C)cc(NC(=O)Cn2ncc3c(c2=O)N(CC2CC2)C(=O)CS3)c1
52 | 838 | O=C(C1=CN(c2ccc(Br)cc2)c2ccccc2S1(=O)=O)N1CCCC1
53 | 1100 | CCOc1ccccc1NC(=O)N1CCCC1c1nc(-c2cccc(OC)c2)no1 (stereo not drawn)
54 | 676 | Cc1ccc(-c2nnc(-c3nc(N4CCN(c5ccccn5)CC4)c4ccccc4n3)o2)cc1
55 | 1280 | CCN(C(=O)c1cccs1)c1nc(-c2ccc(C)cc2)cs1
56 | 591 | Cn1nc(CO)c2c1CCN(C(=O)c1ccc3[nH]ccc3c1)C2
57 | 716 | Cn1nc(C(=O)NCc2ccc3c(c2)OCO3)c2c1CCN(C(=O)C1CC1)C2
58 | 902 | CN1C(=O)Cc2cc(S(=O)(=O)CCC(=O)N3CCN(c4ccccn4)CC3)ccc21
59 | 823 | O=C(CCn1nnc2cc(-c3noc(COc4ccc(F)cc4)n3)ccc21)N1CCOCC1
60 | 913 | CC(C)c1ccc(NC(=O)C2CCN(S(=O)(=O)c3ccc4[nH]c(=O)sc4c3)CC2)cc1
61 | 844 | Cc1ccc(-c2noc(Cn3ccn(-c4ccccc4)c(=O)c3=O)n2)cc1
62 | 1060 | CCc1ccccc1NC(=O)c1cn(CC2CCCO2)cc2c(=O)n(-c3ccccc3)nc1-2 (stereo not drawn)
63 | 832 | CCn1c(=O)c(N2CCCC(C(=O)N3CCN(C(=O)c4ccco4)CC3)C2)nc2ccccc21 (stereo not drawn)
64 | 703 | Cc1ccc(C(O)CN2CCN(c3ccccc3)CC2)c(C)c1 (stereo not drawn)
65 | 757 | O=C(c1ccccc1Br)N1CCN=C1N1CCN(c2ccccc2F)CC1

Row | RP-LC retention time [s] | Structure (SMILES)
66 | 662 | COCC(=O)N1C[C@@H]2C(=O)N(CCc3ccccc3)C(=O)[C@@H]2C1
67 | 1020 | COc1ccccc1C(=O)N1CCCC1c1nc(-c2ccc(F)cc2F)no1 (stereo not drawn)
68 | 1110 | Cc1cccc(N2CCN(Cc3nc(-c4ccc(N5CCC(C)CC5)nc4)no3)CC2)c1
69 | 654 | CCN1CCN(C(=O)c2csc(N3CCN(c4ccc(OC)cc4)CC3)n2)CC1
70 | 806 | O=C(NCCc1ccccc1)c1ccc2c(c1)NC(=O)C1CCCCN21 (stereo not drawn)
71 | 1010 | Cc1ccc(C)c(NC(=O)N2CCCC2c2nc(-c3ccc(F)cc3F)no2)c1 (stereo not drawn)
72 | 800 | CC(=O)N1CCc2ccc(NC(=O)Cc3ccc(-c4ccccc4)cc3)cc2C1
73 | 662 | COc1ccc(OC)c(Nc2c(C(=O)N3CCC(C)CC3)cnc3nc(C)ccc23)c1
74 | 588 | Cc1ccc(S(=O)(=O)N(CCN2CCCCC2C)CC(=O)N2CCNCC2)c(C)c1 (stereo not drawn)
75 | 786 | CCc1nc(N2CCC(C(=O)NCc3cccc(C(F)(F)F)c3)CC2)c2c(C)scc2n1
76 | 620 | CCN(CCN(C)C)c1ccc(C(=O)O)cc1NS(=O)(=O)c1cccc(C)c1
77 | 829 | O=C(C1CCN(c2cnn(Cc3ccccc3)c(=O)c2)CC1)N1CCc2ccccc2C1
78 | 761 | Cc1ccc(-c2nc(-c3ccc4c(c3)oc(=O)n4C(C)C)no2)c(C)c1
79 | 1070 | COc1ccc(NC(=O)Cn2nc3cc(C)nc(Nc4ccc(F)c(C)c4)n3c2=O)cc1
80 | 631 | O=C(Cn1nc2nc(Nc3ccc(F)cc3)ccn2c1=O)N1CCOCC1
81 | 709 | CN(C(=O)Cn1ccc2c(=O)n(C)c(=O)n(C)c21)c1cccc(Cl)c1
82 | 909 | O=C(c1cc(Cl)ccc1F)N1CCN(C(=O)c2nnn3c2COC(c2ccccc2)C3)CC1 (stereo not drawn)
83 | 945 | CCCCN1C(=O)CN(S(=O)(=O)c2ccccc2)CC1(C)C(=O)NCc1ccc(F)cc1 (stereo not drawn)
84 | 665 | O=C(c1ccoc1)N1CCC(c2noc(-c3ccncc3)n2)C1 (stereo not drawn)
85 | 659 | Cn1c(=O)n(C)c2cc(N3CCCCC3)c(NC(=O)NCc3ccc(F)cc3)cc21
86 | 844 | Cc1cccc(-n2c(=O)c3c(cc(C)n3C)n(CC(=O)Nc3cc(C)ccc3C)c2=O)c1
87 | 730 | CCN1CCn2cc(S(=O)(=O)Nc3ccc(F)cc3C)cc2C1=O
88 | 761 | COC(=O)Cn1c(C)cc(=O)n2nc(-c3ccccc3C)nc12
